In US20250388565A1, “ESTROGEN RECEPTOR ALPHA DEGRADERS AND METHODS OF USE THEREOF” (Relay Therapeutics, Inc., priority 2022, published 2025):

Each compound was assayed against T1, ERα protein (HiBiT-tagged) in ESR1_HiBiT KI MCF7 cells (Homo sapiens, UniProt P03372) (assay: Nano Glo HiBiT Lytic Degradation Assay). Conditions: 6 hours with compound, 14-point dose response 1:3, bell-shape curve fit, half-maximal effect of first Hill model, read-out: MCF7 ESR1 HiBiT - (DC50).
T1 sequence (P03372 1-595): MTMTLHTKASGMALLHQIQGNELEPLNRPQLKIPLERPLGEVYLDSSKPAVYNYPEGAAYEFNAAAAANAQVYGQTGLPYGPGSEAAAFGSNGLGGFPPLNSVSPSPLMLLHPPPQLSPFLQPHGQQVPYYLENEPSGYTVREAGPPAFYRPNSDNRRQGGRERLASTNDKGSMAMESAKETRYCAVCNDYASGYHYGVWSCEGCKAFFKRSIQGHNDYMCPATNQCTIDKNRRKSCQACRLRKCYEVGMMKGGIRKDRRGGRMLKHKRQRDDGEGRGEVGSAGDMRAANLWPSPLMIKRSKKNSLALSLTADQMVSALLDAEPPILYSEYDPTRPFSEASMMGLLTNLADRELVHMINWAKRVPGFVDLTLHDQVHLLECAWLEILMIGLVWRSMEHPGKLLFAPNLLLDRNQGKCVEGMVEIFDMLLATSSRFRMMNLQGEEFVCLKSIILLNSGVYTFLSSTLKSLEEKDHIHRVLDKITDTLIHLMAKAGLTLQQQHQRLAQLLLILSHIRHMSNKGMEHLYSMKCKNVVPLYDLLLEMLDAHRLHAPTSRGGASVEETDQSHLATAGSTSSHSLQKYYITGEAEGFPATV
Type: cell-based
Summary of the method: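 ESR1_HiBiT knock-in MCF7 cells were seeded 24 h before treatment, then exposed to compounds for 6 h at 37° C (14-point 1:3 curves, 10 mM top stock, 0.1% DMSO final, duplicates). HiBiT-ERα was read by lytic LgBiT luminescence, background-subtracted and normalized to DMSO. DC50 was taken from the half-maximal point of the first Hill component of a bell-shaped fit.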

| Compound | DC50 |
| --- | --- |
| O=C1CC[C@H](N2Cc3cc(N4CCN(CC5CCN(c6ccc([C@@H]7c8ccc(O)cc8CC[C@@H]7C7CCCCC7)cc6F)CC5)CC4)ccc3C2=O)C(=O)N1 [Compound I-162, (S)-3-(5-(4-((1-(4-((1R,2R)-2-cyclohexyl-6-hydroxy-1,2,3,4-tetrahydronaphthalen-1-yl)-2-fluorophenyl)piperidin-4-yl)methyl)piperazin-1-yl)-1-oxoisoindolin-2-yl)piperidine-2,6-dione] | 3 nM |
| O=C1CC[C@H](N2Cc3cc(N4CCN(CC5CCN(c6cc(F)c([C@H]7c8ccc(O)cc8CC[C@H]7C7CCCCC7)c(F)c6)CC5)CC4)ccc3C2=O)C(=O)N1 [Compound I-118, (S)-3-(5-(4-((1-(4-((1R,2S)-2-cyclohexyl-6-hydroxy-1,2,3,4-tetrahydronaphthalen-1-yl)-3,5-difluorophenyl)piperidin-4-yl)methyl)piperazin-1-yl)-1-oxoisoindolin-2-yl)piperidine-2,6-dione] | 600 nM |
| O=C1CCC(c2ccc(N3CC[C@@H]4[C@H]3CCN4CC3CCN(c4ccc([C@@H]5c6ccc(O)cc6CC[C@@H]5c5ccccc5)cc4)CC3)cc2)C(=O)N1 (stereo partly drawn) [Compound I-176, 3-(4-((3aR,6aR)-4-((1-(4-((1R,2S)-6-hydroxy-2-phenyl-1,2,3,4-tetrahydronaphthalen-1-yl)phenyl)piperidin-4-yl)methyl)hexahydropyrrolo[3,2-b]pyrrol-1 (2H)-yl)phenyl)piperidine-2,6-dione] | 3300 nM |
| O=C1CC[C@H](N2Cc3cc(N4CCN(CC5CCN(c6ccc([C@@H]7c8ccc(O)cc8CC[C@@H]7C78CC9CC(CC(C9)C7)C8)cc6)CC5)CC4)ccc3C2=O)C(=O)N1 [Compound I-161, (S)-3-(5-(4-((1-(4-((1R,2S)-2-((3R,5R,7R)-adamantan-1-yl)-6-hydroxy-1,2,3,4-tetrahydronaphthalen-1-yl)phenyl)piperidin-4-yl)methyl)piperazin-1-yl)-1-oxoisoindolin-2-yl)piperidine-2,6-dione] | 8 nM |
| CC(C)C[C@@H]1CC(F)(F)c2cc(O)ccc2[C@@H]1c1ccc(N2CCC(CN3CCN(c4ccc5c(c4)CN([C@H]4CCC(=O)NC4=O)C5=O)CC3)CC2)cc1 [Compound I-220, (S)-3-(5-(4-((1-(4-((1S,2R)-4,4-difluoro-6-hydroxy-2-isobutyl-1,2,3,4-tetrahydronaphthalen-1-yl)phenyl)piperidin-4-yl)methyl)piperazin-1-yl)-1-oxoisoindolin-2-yl)piperidine-2,6-dione] | 14 nM |
| O=C1CC[C@H](N2Cc3cc(N4CCN(CC5CCN(c6ccc([C@@H]7c8ccc(O)cc8CC[C@@H]7C7CCOCC7)cc6)CC5)CC4)ccc3C2=O)C(=O)N1 [Compound I-32, (3S)-3-[5-[4-[[1-[4-[(1R,2R)-6-hydroxy-2-tetrahydropyran-4-yl-tetralin-1-yl]phenyl]-4-piperidyl]methyl]piperazin-1-yl]-1-oxo-isoindolin-2-yl]piperidine-2,6-dione] | 0.45 nM |
| O=C1CCC(N2Cc3cc(N4CCN(CC5CCN(c6ccc([C@H]7c8ccc(O)cc8CC[C@H]7C7CCCC7)cc6)CC5)CC4)ccc3C2=O)C(=O)N1 (single isomer, unassigned) [Compound I-53] | 0.92 nM |
| Cc1cc([C@@H]2OCc3cc(O)ccc3[C@@H]2c2ccc(N3CCC(CN4CCN(c5ccc6c(c5)CN([C@H]5CCC(=O)NC5=O)C6=O)CC4)CC3)cc2)ccc1F [Compound I-376, (S)-3-(5-(4-((1-(4-((3R,4S)-3-(4-fluoro-3-methylphenyl)-7-hydroxyisochroman-4-yl)phenyl)piperidin-4-yl)methyl)piperazin-1-yl)-1-oxoisoindolin-2-yl)piperidine-2,6-dione] | ≥ 10000 nM |
| O=C1CC[C@H](N2Cc3cc(N4CCN(CC5CCN(c6ccc([C@@H]7c8ccc(O)cc8C(F)(F)C[C@@H]7c7ccccc7)cc6F)CC5)CC4)ccc3C2=O)C(=O)N1 [Compound I-194, (S)-3-(5-(4-((1-(4-((1R,2S)-4,4-difluoro-6-hydroxy-2-phenyl-1,2,3,4-tetrahydronaphthalen-1-yl)-2-fluorophenyl)piperidin-4-yl)methyl)piperazin-1-yl)-1-oxoisoindolin-2-yl)piperidine-2,6-dione] | 0.41 nM |
| O=C1CC[C@H](N2Cc3cc(N4CCN(CC5CCN(c6ccc([C@H]7c8ccc(O)cc8CC[C@H]7C7CCCCC7)nc6)CC5)CC4)ccc3C2=O)C(=O)N1 [Compound I-150, (S)-3-(5-(4-((1-(6-((1R,2S)-2-cyclohexyl-6-hydroxy-1,2,3,4-tetrahydronaphthalen-1-yl)pyridin-3-yl)piperidin-4-yl)methyl)piperazin-1-yl)-1-oxoisoindolin-2-yl)piperidine-2,6-dione] | ≥ 10000 nM |
| O=C1CCC(c2cccc(N3CCC4C3CCN4CC3CCN(c4ccc([C@@H]5c6ccc(O)cc6CC[C@@H]5c5ccccc5)cc4)CC3)c2)C(=O)N1 (stereo in doubt) [Compound I-178, 3-(3-((3aS,6aS)-4-((1-(4-((1R,2S)-6-hydroxy-2-phenyl-1,2,3,4-tetrahydronaphthalen-1-yl)phenyl)piperidin-4-yl)methyl)hexahydropyrrolo[3,2-b]pyrrol-1 (2H)-yl)phenyl)piperidine-2,6-dione] | 3300 nM |
| C[C@@]1(C2CCCCC2)OCc2cc(O)ccc2[C@H]1c1ccc(N2CCC(CN3CCN(c4ccc5c(c4)CN([C@H]4CCC(=O)NC4=O)C5=O)CC3)CC2)cc1 [Compound I-258, (S)-3-(5-(4-((1-(4-((3S,4R)-3-cyclohexyl-7-hydroxy-3-methylisochroman-4-yl)phenyl)piperidin-4-yl)methyl)piperazin-1-yl)-1-oxoisoindolin-2-yl)piperidine-2,6-dione] | 1 nM |
| O=C1CCN(c2ccc(N3CC[C@@]4(CCN(CC5CCN(c6ccc([C@@H]7c8ccc(O)cc8CC[C@@H]7c7ccccc7)cc6)CC5)C4)C3)cc2)C(=O)N1 (single isomer, unassigned) [Compound I-288] | ≥ 10000 nM |
| O=C1CCN(c2ccc(N3CC[C@]4(CCN(CC5CCN(c6ccc([C@@H]7c8ccc(O)cc8CC[C@@H]7c7ccccc7)cc6)CC5)C4)C3)cc2)C(=O)N1 (single isomer, unassigned) [Compound I-287] | ≥ 10000 nM |
| CC(C)C[C@H]1OCc2cc(O)ccc2[C@H]1c1ccc(N2CCC(CN3CCN(c4ccc5c(c4)CN([C@H]4CCC(=O)NC4=O)C5=O)CC3)CC2)cc1 (single isomer, unassigned) [Compound I-224] | 0.48 nM |
| O=C1CC[C@H](N2Cc3cc(N4CCN(CC5CCN(c6ccc([C@H]7c8ccc(O)cc8C(F)(F)C[C@H]7c7ccccc7)cn6)CC5)CC4)ccc3C2=O)C(=O)N1 [Compound I-338, (3S)-3-[5-[4-[[1-[5-[(1R,2R)-4,4-difluoro-6-hydroxy-2-phenyl-tetralin-1-yl]-2-pyridyl]-4-piperidyl]methyl]piperazin-1-yl]-1-oxo-isoindolin-2-yl]piperidine-2,6-dione] | 10 nM |

Results, then the compound that gave them:

| DC50 | Compound |
| --- | --- |
| 361 nM | Cc1cc(F)cc(F)c1[C@@H]1CCc2cc(O)ccc2[C@@H]1c1ccc(N2CCC(CN3CCN(c4ccc5c(c4)CN([C@H]4CCC(=O)NC4=O)C5=O)CC3)CC2)cc1 [II-73] |
| 15 nM | O=C1CC[C@H](N2Cc3cc(N4CCN(CC5CCN(c6ccc([C@H]7c8ccc(O)cc8C(F)(F)C[C@H]7c7ccccc7F)cc6)CC5)CC4)ccc3C2=O)C(=O)N1 [Compound I-313, (S)-3-(5-(4-((1-(4-((1S,2R)-4,4-difluoro-2-(2-fluorophenyl)-6-hydroxy-1,2,3,4-tetrahydronaphthalen-1-yl)phenyl)piperidin-4-yl)methyl)piperazin-1-yl)-1-oxoisoindolin-2-yl)piperidine-2,6-dione] |
| 2 nM | C[C@H]1C[C@H](c2ccccc2)[C@H](c2ccc(N3CCC(CN4CCN(c5ccc6c(c5)CN([C@H]5CCC(=O)NC5=O)C6=O)CC4)CC3)cc2)c2ccc(O)cc21 (single isomer, unassigned) [Compound I-420] |
| 1090 nM | O=C1CC[C@H](N2Cc3cc(N4CCN(CC5CCN(c6ccc([C@H]7c8ccc(O)cc8CC[C@H]7c7ccccc7)c(F)c6)CC5)CC4)ccc3C2=O)C(=O)N1 [II-85] |
| ≥ 10000 nM | O=C1CC[C@H](N2Cc3cc(N4CCN(C[C@@H]5CCCN(c6ccc([C@@H]7c8ccc(O)cc8CC[C@@H]7c7ccccc7)cc6)C5)CC4)ccc3C2=O)C(=O)N1 (single isomer, unassigned) [II-20] |
| 2 nM | O=C1CC[C@H](N2Cc3cc(N4CCN(CC5CC6CCC(C5)N6c5ccc([C@@H]6c7ccc(O)cc7CC[C@@H]6c6ccccc6)cc5)CC4)ccc3C2=O)C(=O)N1 (single isomer, unassigned) [II-47] |
| ≥ 10000 nM | O=C1CC[C@H](N2Cc3cc(N4CCC5(CCN(CC6CCN(c7ccc([C@H]8c9ccc(O)cc9CC[C@H]8c8ccccc8)cc7)CC6)CC5)CC4)ccc3C2=O)C(=O)N1 (single isomer, unassigned) [II-18] |
| 0.68 nM | O=C1CC[C@H](N2Cc3cc(N4CCN(CC5CCN(c6ccc([C@@H]7c8ccc(O)cc8CC[C@@H]7c7ccccc7)cn6)CC5)CC4)ccc3C2=O)C(=O)N1 [II-80] |
